How the values were obtained:
Histamine H3 receptor = Histamine H3 receptor (UniProt Q9Y5N1); test: Binding assay for human or rat histamine H3 receptor ([3H] R-α-methylhistamine); conditions: [3H] R-α-methylhistamine 3.0 nM; rat brain frontal cortex or recombinant human receptor in CHO cells (not specified which)
Procedure: Compounds can be evaluated according to the following procedures.
• Receptor source: Rat brain frontal cortex or recombinant human cDNA expressed in CHO cells • Radioligand: [^3H] R-α-methylhistamine • Final ligand concentration—[3.0 nM] • Non-specific determinant: R-α-methylhistamine (100 uM) • Reference compound: R-α-methylhistamine • Positive control: R-α-methylhistamine Incubation Conditions:
Increasing concentrations of test compounds or standard were incubated with membrane receptors and radioligand in 5 mM MgCl2 and 50 mM TRIS-HCl (pH 7.4) for 60 minutes at room temperature. The reaction was terminated by rapid vacuum filtration onto the glass fiber filters. Radioactivity trapped onto the filters was determined and compared to the control values in order to ascertain any interactions of the test compound(s) with either cloned human or rat receptor binding site.

[1] = Rodent pharmacokinetic study; assay type: in vivo, Male Wistar rats; conditions: whole blood, Wistar male rat; for AUC(0-t) / Cmax / Tmax / half-life: water, blood; for bioavailability: per oral 3 mg/kg vs intravenous 1 mg/kg
Procedure: Male Wistar rats (230-280 grams) obtained from NIN (National Institute of Nutrition, Hyderabad, India) were used as an experimental animal. Three animals were housed in each cage. Animals were kept fasted over night and maintained on a 12 hours light/dark cycle. Three rats were dosed New chemical entity (NCE) orally (3 or 10 mg/kg) and intravenously (1 or 5 mg/kg) on day 0 and day 2.
At each time point blood was collected by jugular vein. Blood was stored at 2-8° C. until analysis. The concentrations of the NCE compound in blood were determined using LC-MS/MS method. Schedule time points: Pre dose 0.08, 0.25, 0.5, 1, 2, 4, 6, 8 and 24 hours after dosing (n=3). The NCE compounds were quantified in blood by partially validated LC-MS/MS method using acetonitrile precipitation technique. NCE compounds were quantified in the calibration range of 1-2000 ng/mL in blood. Study samples were analyzed using calibration samples in the batch and quality control samples spread across the batch.
Pharmacokinetic parameters were calculated by non-compartmental model using software WinNonlin version 5.0.1.

[2] = Rodent brain penetration study; assay type: in vivo, Male Wister rats; conditions: brain / whole blood; Wistar male rat; one value per compound, table lists intravenous 1 mg/kg and per oral 3 mg/kg, water; read-out: Brain Penetration Ratio (Cb/Cp)
Procedure: Male Wister rats (230-280 grams) obtained from NIN (National Institute of Nutrition, Hyderabad, India) was used as experimental animals. Three animals were housed in each cage. Animals were given water and food ad libitum throughout the experiment, and maintained on a 12 hours light/dark cycle.
New chemical entity (NCE) was dissolved in suitable vehicle and administered orally (3 or 10 mg/kg). Around Tmax (i.e, 0.5 hour, 1.0 hour and 2.0 hours) animals were sacrificed. Blood and brain tissue were collected and brain was homogenized to yield 20% w/v. Blood was stored at 2-8° C. and brain homogenate was frozen at −20° C. until analysis. The concentrations of NCE in blood and brain were quantified using LC-MS/MS method.
The NCE was quantified in blood and brain homogenate by partially validated LC-MS/MS method using acetonitrile precipitation technique. NCE compounds were quantified in the calibration range of 1-500 ng/mL in blood and brain homogenate. Study samples were analyzed using calibration samples in the batch and quality control samples spread across the batch. Extents of brain-blood ratio were calculated (Cb/Cp).

Male Wister rats = test: Object recognition task model; assay type: in vivo, rat; conditions: for Exploration time mean ± S.E.M, Familiar object / Exploration time mean ± S.E.M, Novel object: choice trial T2, 24 hours after T1
Procedure: The cognition enhancing properties of compounds of this invention were estimated by using this model.
Male Wister rats (230-280 grams) obtained from N. I. N. (National Institute of Nutrition, Hyderabad, India) was used as experimental animals. Four animals were housed in each cage. Animals were kept on 20% food deprivation before one day and given water ad libitum throughout the experiment and maintained on a 12 hours light/dark cycle. Also the rats were habituated to individual arenas for 1 hour in the absence of any objects.
One group of 12 rats received vehicle (1 mL/Kg) orally and another set of animals received compound of the formula (I) either orally or i.p., before one hour of the familiar (T1) and choice trial (T2).
The experiment was carried out in a 50×50×50 cm open field made up of acrylic. In the familiarization phase, (T1), the rats were placed individually in the open field for 3 minutes, in which two identical objects (plastic bottles, 12.5 cm height×5.5 cm diameter) covered in yellow masking tape alone (a1 and a2) were positioned in two adjacent corners, 10 cms from the walls. After 24 hours of the (T1) trial for long-term memory test, the same rats were placed in the same arena as they were placed in T1 trial. Choice phase (T2) rats were allowed to explore the open field for 3 minutes in presence of one familiar object (a3) and one novel object (b) (Amber color glass bottle, 12 cm high and 5 cm in diameter). Familiar objects presented similar textures, colors and sizes. During the T1 and T2 trial, explorations of each object (defined as sniffing, licking, chewing or having moving vibrissae whilst directing the nose towards the object at a distance of less than 1 cm) were recorded separately by stopwatch. Sitting on an object was not regarded as exploratory activity, however, it was rarely observed. • T1 is the total time spent exploring the familiar objects (a1+a2). • T2 is the total time spent exploring the familiar object and novel object (a3+b).
The object recognition test was performed as described by Ennaceur, A., Delacour, J., 1988, A new one-trial test for neurobiological studies of memory in rats—Behavioural data, Behav. Brain Res., 31, 47-59.

rats [3] = test: Morris water maze, reversal of scopolamine induced amnesia; assay type: in vivo, rat; conditions: p.o., dose giving reversal
Procedure: The cognition-enhancing properties of compounds of this invention were estimated by using this model.
The water maze apparatus consisted of a circular pool (1.8 m diameter, 0.6 m high) constructed in black Perspex (TSE systems, Germany) filled with water (24±2° C.) and positioned underneath a wide-angled video camera to track animal. The 10 cm^2 perspex platform, lying 1 cm below the water surface, was placed in the centre of one of the four imaginary quadrants, which remained constant for all rats. The black Perspex used in the construction of the maze and platform offered no intramaze cues to guide escape behavior. By contrast, the training room offered several strong extramaze visual cues to aid the formation of the spatial map necessary for escape learning. An automated tracking system, [Videomot 2 (5.51), TSE systems, Germany] was employed. This program analyzes video images acquired via a digital camera and an image acquisition boards that determined path length, swim speed and the number of entries and duration of swim time spent in each quadrant of the water maze.

rats [4] = test: Inhibition of food intake; assay type: in vivo, rat; conditions: p.o., rats fasted 18 hours
Procedure: The anti-obesity properties of compounds of this invention were estimated using this model
The experiment consisted of 6 days. The rats were adapted to the 18 hours fasting and 6 hours feeding pattern. The animals were housed in a group of three in the cages provided with the fasting grills and was fasted for 18 hours. After 18 hours fasting the rats were separated and placed individually in the cage. Weighed amount of feed was provided to rats for 6 hours and the feed intake at 1 hour, 2 hours, 4 hours and 6 hours was measured
Again the rats were regrouped and fasted for 18 hours. The above procedure was followed for 5 days. The average cumulative food intake by the rats on the last 3 days was calculated. Animals were randomized on the basis of their previous three days food intake. On the day of experiment the rats were orally treated test compounds or vehicle. After 60 minutes, the feed was provided to the rats and the food intake at 1 hour, 2 hours, 4 hours and 6 hours was measured. The food intake by the rats treated with test compound was compared with the vehicle treated group by using Unpaired Student's t test.

| Structure (SMILES) | Ki (Histamine H3 receptor) | AUC(0-t) ([1]; intravenous, 1 mg/kg) | Cmax ([1]; intravenous, 1 mg/kg) | Tmax ([1]; intravenous, 1 mg/kg) | half-life ([1]; intravenous, 1 mg/kg) | bioavailability [1] | AUC(0-t) ([1]; per oral, 3 mg/kg) | Cmax ([1]; per oral, 3 mg/kg) | Tmax ([1]; per oral, 3 mg/kg) | half-life ([1]; per oral, 3 mg/kg) | Kp [2] | Inference (Male Wister rats; 3 mg/kg p.o.) | Exploration time mean ± S.E.M, Familiar object (Male Wister rats; 3 mg/kg p.o.) | Exploration time mean ± S.E.M, Novel object (Male Wister rats; 3 mg/kg p.o.) | Reversal of Scopolamine Induced amnesia (rats [3]) | further results |
| --- | --- | --- | --- | --- | --- | --- | --- | --- | --- | --- | --- | --- | --- | --- | --- | --- |
| CCC(=O)N1CCc2nc(OC3CCN(C4CCC4)CC3)sc2C1.O=C(O)C(O)C(O)C(=O)O [Example 1, 1-[2-(1-Cyclobutyl-piperidin-4-yloxy)-6,7-dihydro-4H-thiazolo[5,4-c]pyridin-5-yl]-propan-1-one tartrate] | 3.83 nM | 356 ± 61 ng·h/mL | 436 ± 118 ng/mL | 4.8 min | 58.8 ± 7.8 min | 49 ± 5% | 524 ± 51 ng·h/mL | 329 ± 23 ng/mL | 25.2 ± 8.4 min | 57 ± 4.2 min | 1.97 ± 0.24 | Active | 7.8 ± 1.80 s | 23.95 ± 3.15 s | ≦10 mg/kg, p.o. | – |
| O=C(C1CCC1)N1CCc2nc(OC3CCN(C4CCC4)CC3)sc2C1.O=C(O)C(O)C(O)C(=O)O [Example 5, Cyclobutyl-[2-(1-cyclobutyl-piperidin-4-yloxy)-6,7-dihydro-4H-thiazolo[5,4-c]pyridin-5-yl]-methanone tartrate] | 3.3 nM | 155 ± 38 ng·h/mL | 287 ± 58 ng/mL | 4.8 min | 25.8 ± 6 min | 25 ± 1% | 117 ± 34 ng·h/mL | 101 ± 37 ng/mL | 25.2 ± 8.4 min | 34.2 ± 6 min | 3.08 ± 0.45 | Active | 7.15 ± 0.91 s | 11.44 ± 1.58 s | ≦3 mg/kg, p.o. | – |
| CC(C)C(=O)N1CCc2nc(OC3CCN(C4CCC4)CC3)sc2C1.O=C(O)C(O)C(O)C(=O)O [Example 22, 1-[2-(1-Cyclobutyl-piperidin-4-yloxy)-6,7-dihydro-4H-thiazolo[5,4-c]pyridin-5-yl]-2-methyl-propan-1-one tartrate] | 9.5 nM | 110 ± 15 ng·h/mL | 205 ± 47 ng/mL | 4.8 min | 30 ± 3 min | 65 ± 24% | 206 ± 56 ng·h/mL | 189 ± 56 ng/mL | 25.2 ± 8.4 min | 32.4 ± 6.6 min | 2.1 ± 0.13 | – | – | – | – | – |
| O=C(C1CC1)N1CCc2nc(OC3CCN(C4CCC4)CC3)sc2C1.O=C(O)C(O)C(O)C(=O)O [Example 4, [2-(1-Cyclobutyl-piperidin-4-yloxy)-6,7-dihydro-4H-thiazolo[5,4-c]pyridin-5-yl]-cyclopropyl-methanone tartrate] | 7.2 nM | 348 ± 7 ng·h/mL | 320 ± 62 ng/mL | 4.8 min | 75 ± 6.6 min | 39 ± 8% | 407 ± 89 ng·h/mL | 199 ± 48 ng/mL | 40.2 ± 17.4 min | 100 ± 12.6 min | 2.17 ± 0.17 | – | – | – | ≦10 mg/kg, p.o. | Inference (Male Wister rats; 10 mg/kg p.o.): Active; Exploration time mean ± S.E.M, Familiar object (Male Wister rats; 10 mg/kg p.o.): 7.8 ± 1.36 s; Exploration time mean ± S.E.M, Novel object (Male Wister rats; 10 mg/kg p.o.): 20.32 ± 2.22 s; Inhibition of food intake (rats [4]): 20 mg/kg, p.o. |
| O=C(C1CCOCC1)N1CCc2nc(OC3CCN(C4CCC4)CC3)sc2C1 [Example 28, [2-(1-Cyclobutyl-piperidin-4-yloxy)-6,7-dihydro-4H-thiazolo[5,4-c]pyridin-5-yl]-(tetrahydro-pyran-4-yl)-methanone] | 39 nM | 282 ± 23 ng·h/mL | 370 ± 25 ng/mL | 4.8 min | 40.2 ± 3.6 min | 82 ± 38% | 701 ± 328 ng·h/mL | 286 ± 40 ng/mL | 49.8 ± 17.4 min | 57 ± 16.8 min | – | – | – | – | ≧10 mg/kg, p.o. | Inference (Male Wister rats; 0.3 mg/kg p.o.): Active; Exploration time mean ± S.E.M, Familiar object (Male Wister rats; 0.3 mg/kg p.o.): 6.12 ± 1.22 s; Exploration time mean ± S.E.M, Novel object (Male Wister rats; 0.3 mg/kg p.o.): 11.44 ± 1.69 s |
